Values of other authors as cited in patent publication US7702465B2 (priority 2002, dated 2010).

Experiments:
HLA A*0201 [1] = target: HLA A*0201 (Homo sapiens, UniProt P04439, /I218V/L300P/L318F/N151K/N90K/P208A/P217A/Q86G/Q94H/R138H/R169H/T345S); conditions: binding to HLA A*0201; nonameric peptides from HPV E6 and E7; literature data of Rudolf et al. (2001)
HLA A*0201 [2] = target: HLA A*0201 (Homo sapiens, UniProt P04439, D140Y/D185E/D98H/E176V/E277Q/G131W/G231S/I119V/I121R/I166T/I218V/L300P/L318F/N151K/N90K/P208A/P217A/Q86G/Q94H/R138H/R169H/T345S); conditions: binding peptides = the 15 of 247 with IC50 3 to 943 nM (Rudolf et al. 2001)

Row | Sequence | IC50 (HLA A*0201 [1]) | classification as binder to HLA A*0201 (HLA A*0201 [2])
1 | FAFKDLFVV | 3 nM | 
2 | FKDLFVVYR | 500 nM | 
3 | LFLNTLSFV |  | binding peptides
4 | LYNLLIRCL |  | binding peptides
